Experimental data from patent publication US12629341B2 (priority 2019, dated 2026).

Legend:
PrP^Sc [1] = molecular target: PrP^Sc (Mesocricetus auratus, UniProt P04273); design: species or system Syrian hamster; conditions: Hyper-hamster PrPSc pellet
PrP^Sc [2] = molecular target: PrP^Sc (Mus musculus, UniProt P04925); conditions: FVB-RML mouse PrPSc pellet
PrP^Sc (Mus musculus, UniProt P04925), sequence (P04925 23-230 limits assumed): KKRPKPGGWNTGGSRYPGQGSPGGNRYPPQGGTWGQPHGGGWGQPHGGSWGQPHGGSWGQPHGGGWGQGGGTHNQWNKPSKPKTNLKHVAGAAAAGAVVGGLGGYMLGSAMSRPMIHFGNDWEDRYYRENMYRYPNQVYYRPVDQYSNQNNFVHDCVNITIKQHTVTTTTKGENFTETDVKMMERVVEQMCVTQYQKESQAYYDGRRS

PrP^Sc (Mesocricetus auratus, UniProt P04273), sequence (P04273 23-231 limits assumed): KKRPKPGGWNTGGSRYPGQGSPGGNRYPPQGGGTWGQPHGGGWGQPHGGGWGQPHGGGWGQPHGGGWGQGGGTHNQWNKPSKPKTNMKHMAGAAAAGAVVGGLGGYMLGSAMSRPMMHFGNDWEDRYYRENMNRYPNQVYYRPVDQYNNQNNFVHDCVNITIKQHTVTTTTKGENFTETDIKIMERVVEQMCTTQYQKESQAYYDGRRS

SMILES: CCCCCCCCCCCC(=O)N(C)CC(=O)[O-].[Na+] [Sarkosyl]
- calculated amount of lipid: DG (PrP^Sc [1]): 0
- calculated amount of lipid: FA (free fatty acid) (PrP^Sc [1]): 0
- calculated amount of lipid: FC (free cholesterol) (PrP^Sc [1]): 24.35
- calculated amount of lipid: PC (phosphatidylcholine) (PrP^Sc [1]): 21.46
- calculated amount of lipid: PE (phosphatidylethanolamine) (PrP^Sc [1]): 8.57
- calculated amount of lipid: PI (phosphatidylinositol) (PrP^Sc [1]): 0
- calculated amount of lipid: PS (phosphatidylserine) (PrP^Sc [1]): 2.23
- calculated amount of lipid: SM (sphingomyelin) (PrP^Sc [1]): 3.12
- calculated amount of lipid: CE (cholesterol esters) (PrP^Sc [2]): 3.54
- calculated amount of lipid: DG (PrP^Sc [2]): 0
- calculated amount of lipid: FA (free fatty acid) (PrP^Sc [2]): 0
- calculated amount of lipid: FC (free cholesterol) (PrP^Sc [2]): 31.17
- calculated amount of lipid: PC (phosphatidylcholine) (PrP^Sc [2]): 16.80
- calculated amount of lipid: PE (phosphatidylethanolamine) (PrP^Sc [2]): 21.83
- calculated amount of lipid: PI (phosphatidylinositol) (PrP^Sc [2]): 1.92
- calculated amount of lipid: PS (phosphatidylserine) (PrP^Sc [2]): 8.05
- calculated amount of lipid: SM (sphingomyelin) (PrP^Sc [2]): 1.58
- calculated amount of lipid: TG (triglycerides) (PrP^Sc [2]): 4.29
